Data on three compounds can be found in patent publication US20230000891A1, “HYBRID AMPHOTERICIN B DERIVATIVES WITH REDUCED TOXICITY” (The Board of Trustees of the University of Illinois, priority 2019, published 2023).

The test system of data set [1] is C. albicans. Nature of the data set: Minimum Inhibition Concentration (MIC), antifungal activity. The data set is classed as cell-based.
The subject of the next data set is A. fumigatus 91. The description is as above. The data set is classed as cell-based.
For another data set, the system named is A. fumigatus 1100. Described as above. The data set is classed as cell-based.
The subject of data set [2] is C. albicans. In words: MIC with and without pre-complexation with ergosterol. The data set is classed as cell-based. To be noted: sponge pre-complexed with ergosterol. The source says: Anderson, T. M. et al., Nat Chem Biol 2014, 10 (5), 400-6. […] Davis, S. A., et al., Nat Chem Biol 2015, 11 (7), 481-7. To test whether C2′epiAmB primarily kills cells via the same sterol sponge mechanism, the C2′epiAmB sponge was similarly pre-complexed with ergosterol (FIG. 9). […] Thus, C2′epiAmB similarly kills yeast primarily via sterol binding, and, by extension, the new compounds targeted in this application are expected to have a similar barrier to fungal resistance that has been observed for the past 50+ years with AmB.

The subject of a further data set is C. glabrata. In words: Minimum Inhibition Concentration (MIC), antifungal activity. The data set is classed as cell-based.
Another data set deals with A. fumigatus 1163. The description is as above. The data set is classed as cell-based.
The next data set relates to C. krusei. The description is as above. Type of data set: cell-based.
In another data set the test system is C. tropicalis. The description is as above. The data set is classed as cell-based.
Data set [3] in a line: Cmax after IV administration. Type of data set: in vivo, rats. To be noted: C2′epiAmB at 17.5 mg/kg vs AmB at 1 mg/kg.
Data set [4] has as its system C. albicans. In words: Murine model of invasive candidiasis. The data set is classed as in vivo, Neutropenic ICR/Swiss mice. To be noted: single IP injection. The source says: Andes, D. et al., Antimicrobial agents and chemotherapy 2001, 45 (3), 922-6. In fact, the PD parameter that best correlates with outcome is Cmax−/MIC. The same was subsequently observed in a pulmonary model of invasive aspergillosis. Wiederhold, N. P. et al., Antimicrobial agents and chemotherapy 2006, 50 (2), 469-73.

For data set [5], the system named is clinically relevant invasive molds. Nature of the data set: Antifungal activity, broader panel of clinically relevant invasive molds. Type of data set: cell-based. To be noted: many strains, including a pan-azole resistant strain (F14196). The source says: (§1) In vitro antifungal activity of C2′epiAmB was compared with that of AmB against an extensive series of Candida and Aspergillus clinical isolates (FIG. 8A) at Evotec (Oxfordshire, UK). […] C2′epiAmB was also sent to the US national Fungus Testing Laboratory at UT-San Antonio for antifungal testing against an extended panel of especially challenging 40 Aspergillus clinical isolates, including azole-resistant A. fumigatus, A. flavus, and A. terreus (FIG. 8B). […] Recently, Steinbach and Burke directly compared the activity of AmB, AmBisome*, caspofungin, voriconazole, and C2′epiAmB against an even broader panel of clinically relevant invasive molds (FIG. 8C).

The subject of another data set is human red blood cells. Nature of the data set: Toxicity to human red blood cells. Type of data set: cell-based.
The next data set concerns A. fumigatus. In words: In vitro antifungal activity, A. fumigatus strains (Evotec). The data set is classed as cell-based.
Excerpt: as §1

A short description of data set [6]: Isothermal titration calorimetry (ITC) sterol binding. To be noted: within the detection limits of ITC. The source says:
This key discovery opened a path to the rational development of a non-toxic AmB variant. To probe its predicted role in sterol binding, the hydroxyl group was synthetically deleted at the C2′ position on the mycosamine appendage. […] Consistent with the sterol sponge model, this derivative retained good activity against yeast but, most importantly, was nontoxic to human red blood cells and primary (hREC) (FIG. 2B).
A practical 11-step synthesis of C2′epiAmB using a frontier site-selective acylation method was developed (FIG. 4). Wilcock, B. C. et al., Nat Chem 2012, 4 (12), 996-1003; Uno, B. E. A synthesis enabled understanding of Amphotericin B leading to derivatives with improved therapeutic indices. University of Illinois at Urbana-Champaign, 2014. The sterol binding and cell killing activities was then determined.
On the technique in general: Isothermal titration calorimetry measures the heat released or taken up as one component is titrated into another.

A short description of data set [7]: Intravenous toxicity in rats (BUN, ALT/AST, mortality). To be noted: IV, 2, 10, and 17.5 mg/kg (highest dose tested). Type of data set: in vivo. The protocol: >100 mg of C2′epiAmB was prepared, formulated it as the corresponding deoxycholate complex, and evaluated this derivative head-to-head with AmB-deoxycholate for toxicity and efficacy in animal models. […] Alternatively, no elevations in BUN or ALT/AST and no mortality when rats were treated with IV injections of C2′epiAmB at doses of 2, 10, and 17.5 mg/kg (the highest dose that was tested) was observed.

For the next data set, the system named is primary hREC. In words: Toxicity to primary human renal epithelial cells. The data set is classed as cell-based.
The test system of data set [8] is Candida and Aspergillus clinical isolates. Nature of the data set: In vitro antifungal activity, clinical isolates (Evotec). To be noted: many Candida and several Aspergillus strains. The data set is classed as cell-based.
Excerpt: as §1

Data set [9] relates to 40 Aspergillus clinical isolates, including azole-resistant A. fumigatus, A. flavus, and A. terreus. In words: Antifungal testing, extended panel of 40 Aspergillus clinical isolates (Fungus Testing Laboratory, UT-San Antonio). The data set is classed as cell-based.
Excerpt: as §1

For a further data set, the system named is yeast. In words: Activity against yeast / fungal cell killing. The data set is classed as cell-based.

As usually defined, the MIC is the least concentration at which growth counts as inhibited. The low end stands for inhibition by little substance, the high end for a need for much substance.

≈ marks a conversion by molar mass, not a printed value. Read-outs that look alike come from different tables or passages of the source.

Take `C[C@@H]1[C@H](O)[C@@H](C)/C=C/C=C/C=C/C=C/C=C/C=C/C=C/[C@H](OC2O[C@H](C)[C@@H](O)[C@H](N)[C@@H]2O)CC2O[C@](O)(CC(O)CC(O)[C@H](O)CCC(O)CC(O)CC(=O)O[C@H]1C)CC(O)[C@H]2C(=O)O` (stereo partly shown) [AmB, Amphotericin B]: the MIC is 0.5 µM (≈ 0.462 µg/mL) in the data set on C. albicans [1] (Candida albicans); 2 µM (≈ 1.85 µg/mL) against A. fumigatus 91 (Aspergillus fumigatus); 2 µM (≈ 1.85 µg/mL) with A. fumigatus 1100 (Aspergillus fumigatus); 0.5 µM (≈ 0.462 µg/mL) in the data set on C. glabrata (Nakaseomyces glabratus); 2 µM (≈ 1.85 µg/mL) in the data set on A. fumigatus 1163 (Aspergillus fumigatus); 2 µM (≈ 1.85 µg/mL) with C. krusei (Pichia kudriavzevii). In addition, 2 µM (≈ 1.85 µg/mL) was the least that counted as inhibitory against C. tropicalis (Candida tropicalis) (MIC). Moreover, the “change in potency upon ergosterol pre-complexation” value in the data set on C. albicans [2] was “same reduction in potency”.
For the compound `COC(=O)[C@H]1[C@@H]2C[C@@H](O[C@@H]3O[C@H](C)[C@@H](O)[C@H](N)[C@H]3O)/C=C/C=C/C=C/C=C/C=C/C=C/C=C/[C@H](C)[C@@H](O)[C@@H](C)[C@H](C)OC(=O)C[C@H](O)C[C@H](O)CC[C@@H](O)[C@H](O)C[C@H](O)C[C@](O)(C[C@@H]1O)O2` [C2'epiAmBME], the minimal inhibitory concentration (MIC) in the data set with C. albicans [1] came out at 1 µM (≈ 0.938 µg/mL); in the data set on A. fumigatus 91 it was 4 µM (≈ 3.75 µg/mL); against A. fumigatus 1100 it was 4 µM (≈ 3.75 µg/mL); in the data set with C. glabrata, 4 µM (≈ 3.75 µg/mL); in the data set with A. fumigatus 1163, 4 µM (≈ 3.75 µg/mL); in the data set on C. krusei, 2 µM (≈ 1.88 µg/mL). In the data set with C. tropicalis, the MIC is reported as 2 µM (≈ 1.88 µg/mL).
For `C[C@@H]1[C@H](O)[C@@H](C)/C=C/C=C/C=C/C=C/C=C/C=C/C=C/[C@H](O[C@@H]2O[C@H](C)[C@@H](O)[C@H](N)[C@H]2O)C[C@@H]2O[C@](O)(C[C@@H](O)C[C@@H](O)[C@H](O)CC[C@@H](O)C[C@@H](O)CC(=O)O[C@H]1C)C[C@H](O)[C@H]2C(=O)O` [C2′epiAmB], the MIC against C. albicans [1] was 4 µM (≈ 3.7 µg/mL); in the data set with A. fumigatus 91 it was more than 64 µM; in the data set on A. fumigatus 1100, 32 µM (≈ 29.6 µg/mL); against C. glabrata, 8 µM (≈ 7.39 µg/mL); with A. fumigatus 1163 it was more than 64 µM; against C. krusei it was 4 µM (≈ 3.7 µg/mL). In the data set on C. tropicalis, the MIC worked out at 4 µM (≈ 3.7 µg/mL). In addition, the “Cmax relative to Cmax for AmB at 1 mg/kg” value in [3] is more than 16 fold. In the data set with C. albicans [2], the “change in potency upon ergosterol pre-complexation” value was “same reduction in potency”. Besides, in the data set on C. albicans [4] (16 mg/kg dose), the fungal burden entry is listed as “outstanding reductions in fungal burden”. In addition, the efficacy result in the data set on C. albicans [4] (deoxycholate complex, 1, 4, 8, or 16 mg/kg) was “dose-dependent efficacy”. Also, the antifungal potency result in data set [5] is given as “good antifungal potency”. Moreover, the “toxicity to human red blood cells” value in the data set with human red blood cells was “non-toxic”. In addition, the “potency relative to AmB (less potent)” value in the data set with A. fumigatus (A. fumigatus strain AF91) is on record as more than 32 times; in the data set with A. fumigatus (A. fumigatus strains AF293, A1163, and ATC204305) it was 4 fold; in [9] (range over 40 Aspergillus clinical isolates) it was 2-16 times. Moreover, the “cholesterol binding by ITC” value in data set [6] is recorded as “not (detectably) cholesterol”. For the same compound, the “ergosterol binding by ITC” value in data set [6] was “bind ergosterol”. In addition, in data set [7], the ALT/AST result is on record as “no elevations”. In addition, in data set [7], the “Blood Urea Nitrogen (BUN)” value is “no elevations”. In addition, the mortality result in data set [7] was “no mortality”. For the same compound, the “toxicity to primary hREC” value in the data set with primary hREC is listed as “non-toxic”. Moreover, the “in vitro antifungal activity” value in data set [8] was “good activity”. Moreover, in data set [9] (average across all 40 strains), the “average potency relative to AmB (less potent)” value is 5.6 fold. In addition, in the data set on yeast, the “activity against yeast / fungal cells” value was “kill fungal”.
